Data reported in ChEMBL document CHEMBL4420076, “Amylin and calcitonin receptor agonist” (2017).
Each block holds one compound with its values, some of them ahead of it. Numbered stars: 1 amine (or outer) side, 2 acyl side, 3 side chain; on linkers, the order of the positions; unused ones are H or OH. Peptide text beside a SMILES is read from it. * marks the point of attachment. C18 diacid = O=C(O)CCCCCCCCCCCCCCCCC(=O)*; γGlu = O=C(O)[C@H](CCC(=O)[*:2])N[*:1]

Assays:
[1] = Terminal half life in Sprague-Dawley rat at 20 nmol/kg, sc by LC-MS analysis; type: ADME, organism-based; conditions: in vivo, read-out: beta t1/2 (converted)
[2] = tested on: Rattus norvegicus; assay: Reduction in food intake in Sprague-Dawley rat at 3 nmol/kg measured 0 to 24 hrs post dose relative to control; type: functional; design: scale not given: the % may be the effect or the level left
[3] = tested on: Rattus norvegicus; assay: Reduction in food intake in Sprague-Dawley rat at 3 nmol/kg measured 24 to 48 hrs post dose relative to control; type: functional; design: scale not given: the % may be the effect or the level left
[4] = target: T1, Amylin receptor AMY3; CALCR/RAMP3 (Homo sapiens, UniProt O60896+P30988); assay: Agonist activity at human amylin receptor expressed in BHK570 cells co-expressing RAMP3 assessed as increase in intracellular cAMP concentration incubated for 3 hrs in absence of albumin by CRE luciferase reporter gene assay; type: functional, cell-based
T1 sequence (P30988 whole entry): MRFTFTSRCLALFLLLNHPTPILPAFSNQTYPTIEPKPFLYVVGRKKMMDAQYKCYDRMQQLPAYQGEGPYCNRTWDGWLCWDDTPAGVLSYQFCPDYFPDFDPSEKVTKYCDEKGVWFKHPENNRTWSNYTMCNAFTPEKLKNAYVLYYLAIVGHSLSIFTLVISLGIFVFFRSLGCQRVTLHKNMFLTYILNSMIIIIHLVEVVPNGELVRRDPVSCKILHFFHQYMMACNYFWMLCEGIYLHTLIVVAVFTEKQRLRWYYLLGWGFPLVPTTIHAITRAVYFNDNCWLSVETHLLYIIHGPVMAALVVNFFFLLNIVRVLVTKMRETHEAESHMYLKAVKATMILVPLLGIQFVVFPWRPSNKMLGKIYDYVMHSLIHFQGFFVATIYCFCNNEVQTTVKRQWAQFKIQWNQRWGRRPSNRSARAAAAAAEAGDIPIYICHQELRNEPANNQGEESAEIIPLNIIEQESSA
T1 sequence (O60896 whole entry): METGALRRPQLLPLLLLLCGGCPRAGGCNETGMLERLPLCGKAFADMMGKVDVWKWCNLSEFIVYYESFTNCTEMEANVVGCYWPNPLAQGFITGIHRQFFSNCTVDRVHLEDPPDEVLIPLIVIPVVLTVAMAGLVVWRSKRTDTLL

[5] = target: T2, Calcitonin receptor (Homo sapiens, UniProt P30988); assay: Agonist activity at human calcitonin receptor expressed in BHK570 cells assessed as increase in intracellular cAMP concentration incubated for 3 hrs in absence of albumin by CRE luciferase reporter gene assay; type: functional, cell-based
T2 sequence (P30988 whole entry): T1 sequence (P30988 whole entry)

[6] = target: T1, Amylin receptor AMY3; CALCR/RAMP3; assay: Agonist activity at human amylin receptor expressed in BHK570 cells co-expressing RAMP3 assessed as increase in intracellular cAMP concentration incubated for 3 hrs in presence of 10% FBS by CRE luciferase reporter gene assay; type: functional, cell-based
[7] = target: T2, Calcitonin receptor; assay: Agonist activity at human calcitonin receptor expressed in BHK570 cells assessed as increase in intracellular cAMP concentration incubated for 3 hrs in presence of 10% FBS by CRE luciferase reporter gene assay; type: functional, cell-based
[8] = Stability in pH 7.5 buffer assessed as lag time for fibril formation at 1 uM by Thioflavin T based fluorescence assay; type: physicochemical; conditions: pH 7.5, 1 µM
[9] = Stability in pH 7.5 buffer assessed as compound recovery at 1 uM by Thioflavin T based fluorescence assay; type: physicochemical; conditions: read-out: Drug recovery
[10] = Solubility in 100 mM glycylglycine buffer at pH 3.0 incubated for 18 hrs by UPLC analysis; type: physicochemical
[11] = Solubility in 100 mM glycylglycine buffer at pH 4.0 incubated for 18 hrs by UPLC analysis; type: physicochemical
[12] = Solubility in 100 mM bistrispropane buffer at pH 6.0 incubated for 18 hrs by UPLC analysis; type: physicochemical
[13] = Solubility in 100 mM glycylglycine buffer at pH 5.0 incubated for 18 hrs by UPLC analysis; type: physicochemical
[14] = Solubility in 100 mM bistrispropane buffer at pH 6.5 incubated for 18 hrs by UPLC analysis; type: physicochemical
[15] = Solubility in 100 mM bistrispropane buffer at pH 7.0 incubated for 18 hrs by UPLC analysis; type: physicochemical
[16] = Solubility in 100 mM bistrispropane buffer at pH 7.5 incubated for 18 hrs by UPLC analysis; type: physicochemical
[17] = Solubility in 100 mM bistrispropane buffer at pH 8.0 incubated for 18 hrs by UPLC analysis; type: physicochemical
[18] = Half life in LYD pig at 1.6 mM, sc co-formulated with 1.6 mM liraglutide by LC-MS analysis; type: ADME, organism-based, Sus scrofa; conditions: in vivo
[19] = Dose normalized AUC in LYD pig at 1.6 mM, sc co-formulated with 1.6 mM liraglutide by LC-MS analysis; type: ADME, organism-based, Sus scrofa; conditions: in vivo, 1600 µM
[20] = Half life in LYD pig at 1.6 mM, sc co-dosed with 1.6 mM liraglutide by LC-MS analysis; type: ADME, organism-based, Sus scrofa; conditions: in vivo
[21] = Dose normalized AUC in LYD pig at 1.6 mM, sc co-dosed with 1.6 mM liraglutide by LC-MS analysis; type: ADME, organism-based, Sus scrofa; conditions: in vivo, 1600 µM

half-life [1]: 1 h
SMILES: CC(C)C[C@H](NC(=O)[C@H](CCCCN)NC(=O)CNC(=O)[C@H](CC(C)C)NC(=O)[C@@H](NC(=O)[C@H](CS)NC(=O)[C@@H](NC(=O)[C@H](CO)NC(=O)[C@H](CC(C)C)NC(=O)[C@H](CC(N)=O)NC(=O)[C@H](CO)NC(=O)[C@@H](N)CS)[C@@H](C)O)C(C)C)C(=O)N[C@@H](CO)C(=O)N[C@@H](CCC(N)=O)C(=O)N[C@@H](CCC(=O)O)C(=O)N[C@@H](CC(C)C)C(=O)N[C@@H](Cc1cnc[nH]1)C(=O)N[C@@H](CCCCN)C(=O)N[C@@H](CC(C)C)C(=O)N[C@@H](CCC(N)=O)C(=O)N[C@H](C(=O)N[C@@H](Cc1ccc(O)cc1)C(=O)N1CCC[C@H]1C(=O)N[C@@H](CCCNC(=N)N)C(=O)N[C@H](C(=O)N[C@@H](CC(N)=O)C(=O)N[C@H](C(=O)NCC(=O)N[C@@H](CO)C(=O)NCC(=O)N[C@H](C(=O)N1CCC[C@H]1C(=O)O)[C@@H](C)O)[C@@H](C)O)[C@@H](C)O)[C@@H](C)O

EC50 [4]: 0.016 nM
EC50 [5]: 0.017 nM
EC50 [6]: 0.026 nM
EC50 [7]: 0.011 nM
Time [8]: > 45 h
remaining at 1 µM [9]: 100%
solubility at 18 h [10]: ≥ 200 µM
solubility at 18 h [11]: ≥ 200 µM
solubility at 18 h [12]: ≥ 200 µM
solubility at 18 h [13]: ≥ 200 µM
solubility at 18 h [14]: ≥ 200 µM
solubility at 18 h [15]: ≥ 200 µM
solubility at 18 h [16]: ≥ 200 µM
solubility at 18 h [17]: ≥ 200 µM
half-life at 1600 µM [18]: 133 h
AUC/dose [19]: 656 kg·h/L
half-life at 1600 µM [20]: 129 h
AUC/dose [21]: 624 kg·h/L
SMILES: CC(C)C[C@H](NC(=O)[C@H](C)NC(=O)[C@H](C)NC(=O)[C@@H](NC(=O)[C@H](CO)NC(=O)[C@H](CC(C)C)NC(=O)[C@H](CCC(=O)O)NC(=O)[C@H](CO)NC(=O)[C@H](C)NC(=O)CC[C@H](NC(=O)CCCCCCCCCCCCCCCCC(=O)O)C(=O)O)[C@@H](C)O)C(=O)NCC(=O)N[C@@H](CCCNC(=N)N)C(=O)N[C@@H](CC(C)C)C(=O)N[C@@H](CO)C(=O)N[C@@H](C)C(=O)N[C@@H](CCC(=O)O)C(=O)N[C@@H](CC(C)C)C(=O)N[C@@H](Cc1cnc[nH]1)C(=O)N[C@@H](CCC(=O)O)C(=O)N[C@@H](CC(C)C)C(=O)N[C@@H](C)C(=O)N[C@H](C(=O)N[C@@H](CC(C)C)C(=O)N1CCC[C@H]1C(=O)N[C@@H](CCCNC(=N)N)C(=O)N[C@H](C(=O)N[C@@H](CCC(=O)O)C(=O)N[C@H](C(=O)NCC(=O)N[C@@H](CO)C(=O)NCC(=O)N[C@@H](CO)C(=O)N1CCC[C@H]1C(N)=O)[C@@H](C)O)[C@@H](C)O)[C@@H](C)O ({C18 diacid-γGlu}-ASELSTAALGRLSAELHELATLPRTETGSGSP-NH2)
Activity [2]: 82%
Activity [3]: 78%
